Data published in PMC9295568, “Dual Inhibition of Vacuolar-ATPase and TMPRSS2 Is Required for Complete Blockade of SARS-CoV-2 Entry into Cells” (Antimicrobial Agents and Chemotherapy, 2022).
Where a name gives a salt, the structure may show the parent alone.

System: SARS-CoV-2 PsV (wild-type S protein)
Assay: microbe, parasite or virus in culture
Assay type: cell-based
Settings: Severe acute respiratory syndrome coronavirus 2, HeLa-ACE2, read-out: IC50, inhibition of PsV entry, HeLa-ACE2 (-TMPRSS2), wild-type S PsV

| Molecule | IC50 |
| --- | --- |
| CCN(CC)Cc1cc(Nc2ccnc3cc(Cl)ccc23)ccc1O [amodiaquine] | 2500 nM |
| CCN(CC)CCCC(C)Nc1ccnc2cc(Cl)ccc12 (centres unmarked) [chloroquine] | 2600 nM |
| CCN(CC)CCCC(C)Nc1c2ccc(Cl)cc2nc2ccc(OC)cc12 (centres unmarked) [quinacrine] | 900 nM |

System: not listed separately
Assay: Cell viability (CellTiter-Glo), HeLa-ACE2 cells
Assay type: cell-based
Settings: human, read-out: half-cytotoxic concentration (CC50)
Experimental: In order to confirm that the reduced luminescence was not related to cell toxicity, HeLa-ACE2 and Vero-TMPRSS2 cell viability upon incubation with serial dilutions of the sample compounds were tested in parallel to the neutralization assay. […] Cell viability was monitored by adding 50 μL of CellTiter-Glo reagent (Promega) to 200 μL of media containing cells. After a 10-minute incubation, 100 μL volume was transferred to a 96-well white plate (Sigma-Aldrich) to measure luminescence using a Synergy Neo2 Multi-Mode Assay Microplate Reader (Biotek Instruments). As an additional measure of cell toxicity Vero cell, lacking TMPRSS2, viability was measured using PrestoBlue (ThermoFisher). 10,000 cells/well of pre-seeded Vero cells were cocultured with the same serial dilutions of the sample compounds at 37°C for 48 h. At 48 h, 10 μL of PrestoBlue (ThermoFisher) was added to 100 μL of media containing cells. After a 2 h incubation, fluorescence was measured using a Spectromax m5e (Molecular Devices) at an excitation of 555 nm and emission of 585 nm. Data were plotted and half-cytotoxic concentration (CC50) values were calculated using Prims 9 (GraphPad).

| Molecule | CC50 |
| --- | --- |
| CCN(CC)Cc1cc(Nc2ccnc3cc(Cl)ccc23)ccc1O [amodiaquine] | 34700 nM |
| CCN(CC)CCCC(C)Nc1ccnc2cc(Cl)ccc12 (centres unmarked) [chloroquine] | 25700 nM |
| CCN(CC)CCCC(C)Nc1c2ccc(Cl)cc2nc2ccc(OC)cc12 (centres unmarked) [quinacrine] | 1700 nM |

System: endosomal acidification in Vero cells
Assay: cells
Assay type: cell-based
Settings: 40 µM
Experimental: Inhibition of endosomal acidification was measured using LysoTracker Red DND-99 (ThermoFisher). […] Data were plotted using Prism 9 (GraphPad).

| Molecule | Percent Inhibition (%) of endosomal acidification |
| --- | --- |
| C[CH2][Hg][S]c1ccccc1C(=O)[O-].[Na+] [THIMEROSAL] | 81% |

Same assay, conditions: Chlorocebus sabaeus, Vero, read-out: Percent Inhibition (%) of endosomal acidification

| Molecule | inhibition at 40 µM |
| --- | --- |
| CSc1ccc2c(c1)N(CCC1CCCCN1C)c1ccccc1S2 (centres unmarked) [THIORIDAZINE HYDROCHLORIDE] | 92% |
| Clc1ccc(C(Cn2ccnc2)OCc2ccsc2Cl)c(Cl)c1 (centres unmarked) [TIOCONAZOLE] | 94% |

Same assay, conditions: Chlorocebus sabaeus; Vero cells, 40 μM, singlet (n=1); read-out: Percent Inhibition (%) of endosomal acidification

| Molecule | inhibition at 40 µM |
| --- | --- |
| OC(c1cc(C(F)(F)F)nc2c(C(F)(F)F)cccc12)C1CCCCN1 (centres unmarked) [MEFLOQUINE] | 64% |
| CN1C[C@H](CNC(=O)OCc2ccccc2)C[C@@H]2c3cccc4c3c(cn4C)C[C@H]21 [METERGOLINE] | 53% |
| COC(=O)CC[C@@H](C)[C@H]1CC[C@H]2[C@@H]3CC[C@@H]4C[C@H](O)CC[C@]4(C)[C@H]3C[C@H](O)[C@]12C [METHYL DEOXYCHOLATE] | 63% |
| CN(C)c1ccc2nc3ccc(=[N+](C)C)cc-3sc2c1 [METHYLENE BLUE] | 85% |
| Clc1ccc(COC(Cn2ccnc2)c2ccc(Cl)cc2Cl)c(Cl)c1 (centres unmarked) [MICONAZOLE NITRATE] | 81% |
| O=C1c2c(O)ccc(O)c2C(=O)c2c(NCCNCCO)ccc(NCCNCCO)c21 [MITOXANTRONE HYDROCHLORIDE] | 80% |
| OC(CNCC(O)C1CCc2cc(F)ccc2O1)C1CCc2cc(F)ccc2O1 (centres unmarked) [NEBIVOLOL HYDROCHLORIDE] | 52% |
| CCCCCCCCCc1ccc(OCCOCCOCCOCCOCCOCCOCCOCCOCCO)cc1 [NONOXYNOL-9] | 91% |
| Fc1ccc([C@@H]2CCNC[C@H]2COc2ccc3c(c2)OCO3)cc1 [PAROXETINE HYDROCHLORIDE] | 65% |
| OC1(c2ccc(Cl)c(C(F)(F)F)c2)CCN(CCCC(c2ccc(F)cc2)c2ccc(F)cc2)CC1 [PENFLURIDOL] | 61% |
| C1CCC(C(CC2CCCCN2)C2CCCCC2)CC1 (centres unmarked) [PERHEXILINE MALEATE] | 92% |
| OCCN1CCN(CCCN2c3ccccc3Sc3ccc(Cl)cc32)CC1 [PERPHENAZINE] | 93% |
| O=c1[nH]c2ccccc2n1C1CCN(CCCC(c2ccc(F)cc2)c2ccc(F)cc2)CC1 [PIMOZIDE] | 54% |
| CC(=O)c1ccc2c(c1)N(CCCN1CCC(CCO)CC1)c1ccccc1S2 [PIPERACETAZINE] | 78% |
| COc1cc2nc(N3CCN(C(=O)c4ccco4)CC3)nc(N)c2cc1OC [PRAZOSIN HYDROCHLORIDE] | 76% |
| COc1cc(NC(C)CCCN)c2ncccc2c1 (centres unmarked) [PRIMAQUINE PHOSPHATE] | 68% |
| CCCC(C(=O)OCCN(CC)CC)(c1ccccc1)c1ccccc1 [PROADIFEN HYDROCHLORIDE] | 59% |
| CN1CCN(CCCN2c3ccccc3Sc3ccc(Cl)cc32)CC1 [PROCHLORPERAZINE EDISYLATE] | 73% |
| Nc1ccc2cc3ccc(N)cc3nc2c1 [PROFLAVINE HEMISULFATE] | 54% |
| CN(C)CCCN1c2ccccc2Sc2ccccc21 [PROMAZINE HYDROCHLORIDE] | 75% |
| CC(CN1c2ccccc2Sc2ccccc21)N(C)C (centres unmarked) [PROMETHAZINE HYDROCHLORIDE] | 56% |

| Molecule | inhibition at 40 µM |
| --- | --- |
| CCN(CC)CCCC(C)Nc1c2ccc(Cl)cc2nc2ccc(OC)cc12 (centres unmarked) [QUINACRINE HYDROCHLORIDE] | 63% |
| O=C(Nc1ccc(Oc2ccc(Cl)cc2)c(Cl)c1)c1cc(I)cc(I)c1O [RAFOXANIDE] | 68% |
| O=C(c1ccc(OCCN2CCCCC2)cc1)c1c(-c2ccc(O)cc2)sc2cc(O)ccc12 [RALOXIFENE HYDROCHLORIDE] | 56% |
| CCC(C)(C)C(=O)O[C@H]1C[C@@H](C)C=C2C=C[C@H](C)[C@H](CC[C@@H]3C[C@@H](O)CC(=O)O3)[C@H]21 [SIMVASTATIN] | 84% |
| [H]/N=C(/N)N[C@H]1[C@H](O)[C@@H](O)[C@H](O[C@@H]2O[C@@H](C)[C@](O)(C=O)[C@H]2O[C@@H]2O[C@@H](CO)[C@H](O)[C@@H](O)[C@@H]2NC)[C@@H](N/C(N)=N\[H])[C@@H]1O [STREPTOMYCIN SULFATE] | 101% |
| CCCCCCCCNC(C)C(O)c1ccc(SC(C)C)cc1 (centres unmarked) [SULOCTIDIL] | 94% |
| CC/C(=C(\c1ccccc1)c1ccc(OCCN(C)C)cc1)c1ccccc1 [TAMOXIFEN CITRATE] | 82% |
| CC(C)N1CCN(c2ccc(OCC3COC(Cn4cncn4)(c4ccc(Cl)cc4Cl)O3)cc2)CC1 (centres unmarked) [TERCONAZOLE] | 64% |
| CCC(=O)O[C@H]1CC[C@H]2[C@@H]3CCC4=CC(=O)CC[C@]4(C)[C@H]3CC[C@]12C [TESTOSTERONE PROPIONATE] | 64% |
| COc1ccc2cc1Oc1ccc(cc1)C[C@H]1c3cc(c(OC)cc3CCN1C)Oc1c(OC)c(OC)cc3c1[C@H](C2)N(C)CC3 [TETRANDRINE] | 50% |
| CN1CCN(CC/C=C2/c3ccccc3Sc3ccc(S(=O)(=O)N(C)C)cc32)CC1 [THIOTHIXENE] | 80% |
| CCN(CC)CCOc1ccc2c(c1)C(=O)c1cc(OCCN(CC)CC)ccc1-2 [TILORONE] | 59% |
| Cc1cc2nc3ccc(N(C)C)cc3[s+]c2cc1N [TOLONIUM CHLORIDE] | 84% |
| C[C@H]1CC[C@]2(NC1)O[C@H]1C[C@H]3[C@@H]4CC[C@H]5C[C@@H](O[C@@H]6O[C@H](CO)[C@H](O[C@@H]7O[C@H](CO)[C@@H](O)[C@H](O[C@@H]8OC[C@@H](O)[C@H](O)[C@H]8O)[C@H]7O[C@@H]7O[C@H](CO)[C@@H](O)[C@H](O)[C@H]7O)[C@H](O)[C@H]6O)CC[C@]5(C)[C@H]4CC[C@]3(C)[C@H]1[C@@H]2C [TOMATINE] | 72% |
| CC(C)c1c(O)ccc2c1CC[C@H]1C(C)(C)CCC[C@]21C [TOTAROL] | 74% |
| Oc1cc(Cl)ccc1Oc1ccc(Cl)cc1Cl [TRICLOSAN] | 96% |
| CN1CCN(CCCN2c3ccccc3Sc3ccc(C(F)(F)F)cc32)CC1 [TRIFLUOPERAZINE HYDROCHLORIDE] | 77% |
| CN(C)CCCN1c2ccccc2Sc2ccc(C(F)(F)F)cc21 [TRIFLUPROMAZINE HYDROCHLORIDE] | 86% |
| CC(CN(C)C)CN1c2ccccc2CCc2ccccc21 (centres unmarked) [TRIMIPRAMINE MALEATE] | 56% |
| Cc1ccc(Sc2ccccc2N2CCNCC2)c(C)c1 [VORTIOXETINE HYDROBROMIDE] | 63% |
| CCOC(=O)Nc1ccc(NCc2ccc(F)cc2)nc1N [[…]] | 50% |

Same assay, conditions: Vero cells, 40 μM, singlet (n=1)

| Molecule | Percent Inhibition (%) of endosomal acidification |
| --- | --- |
| CN1CCc2c(c3ccccc3n2Cc2ccccc2)C1.CN1CCc2c(c3ccccc3n2Cc2ccccc2)C1.O=S(=O)(O)c1cccc2c(S(=O)(=O)O)cccc12 [MEBHYDROLIN NAPHTHALENESULFONATE] | 52% |
| Cc1cc(C(C)(C)CC(C)(C)C)ccc1OCCOCC[N+](C)(C)Cc1ccccc1.[Cl-] [METHYLBENZETHONIUM CHLORIDE] | 85% |
| CN1CCC(=C2c3ccccc3CCc3sccc32)CC1.O=C(O)CC(O)C(=O)O [PIZOTYLINE MALATE] | 50% |
| COc1ccc2nc3cc(Cl)ccc3c(Nc3cc(CN4CCCC4)c(O)c(CN4CCCC4)c3)c2n1.O=P(O)(O)O.O=P(O)(O)O.O=P(O)(O)O.O=P(O)(O)O [PYRONARIDINE TETRAPHOSPHATE] | 70% |
| Cl.N=C(N/N=C/c1ccc(Cl)cc1)N/N=C/c1ccc(Cl)cc1 [ROBENIDINE HYDROCHLORIDE] | 76% |
| CN(C)CCOc1ccc(/C(=C(/CCCl)c2ccccc2)c2ccccc2)cc1 [TOREMIPHENE CITRATE] | 68% |
| COC(=O)C1(C)CCCC2(C)c3ccc(O)c(C(C)C)c3CCC12 (centres unmarked) [TOTAROL-19-CARBOXYLIC ACID, METHYL ESTER] | 66% |
| CC(CN(C)C)CN1c2ccccc2Sc2ccccc21.CC(CN(C)C)CN1c2ccccc2Sc2ccccc21.O=C(O)C(O)C(O)C(=O)O (centres unmarked) [TRIMEPRAZINE TARTRATE] | 78% |
| COc1c(O)cc2oc3cc(O)c(CC=C(C)C)c(O)c3c(=O)c2c1CC=C(C)C [alpha-MANGOSTIN] | 86% |
| ABAMECTIN (avermectin B1a shown) | 59% |
| BENZALKONIUM CHLORIDE | 88% |
| BITHIONATE SODIUM | 67% |
| CHLOROPHYLLIDE Cu COMPLEX Na SALT | 77% |
| MEPARTRICIN | 52% |
